T1: DarB (Bacillus subtilis, UniProt O31698)
T1 sequence (O31698 1-147): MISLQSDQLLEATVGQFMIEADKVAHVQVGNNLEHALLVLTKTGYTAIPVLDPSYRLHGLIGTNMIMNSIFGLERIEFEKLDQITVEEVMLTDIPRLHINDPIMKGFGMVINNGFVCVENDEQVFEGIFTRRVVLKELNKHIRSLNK

B1: DarB (c-di-AMP receptor protein, CBS domain protein) of Bacillus subtilis, wild type (natural protein)
chain: T1 sequence (O31698 1-147)

How the values were obtained:
DarB = target: T1, DarB; assay: ITC and crystal structure; format: binding
crystal structure = target: the molecule itself; assay: crystal structure

| Molecule | Kd (DarB) | stoichiometry N (crystal structure) |
| --- | --- | --- |
| Nc1ncnc2c1ncn2[C@@H]1O[C@H](COP(=O)(O)O)[C@@H](O)[C@H]1O [AMP] | 91.1 µM |  |
| B1 |  | 2 |

— article PMC9293649 (The Journal of Biological Chemistry, 2022)
